# Laboratory results as given in patent US20230227477A1, “COMPOUNDS FOR SENSING REACTIVE OXYGEN SPECIES AND METHODS FOR USING THE SAME” (WAKE FOREST UNIVERSITY HEALTH SCIENCES, priority 2020, published 2023).
# Key:
# [1] = Selectivity screen of compound RAH2115 against oxidants, reductants, nucleophiles and salts (turn-on fluorescence); assay type: physicochemical; details: RAH2115 10 μM
# From the text: Given the longer excitation and emission profile of resorufin, it was hypothesized that compound RAH2115 would provide a better gauge of the overall selectivity and sensitivity of the scaffold towards H2O2 while confirming its potential applications within a biological setting. The high selectivity the scaffold towards H2O2 was confirmed by thoroughly screening compound RAH2115 against various oxidants, reductants, and nucleophiles in PBS buffer (pH 7.4) and measuring the resulting turn-on fluorescence after a 2 h incubation period (See FIG. 4, Graph A).
# […] Next, 1.080 mL of a freshly prepared 111.1 μM compound RAH2115 stock solution was added to 10.80 mL of 1× PBS buffer (pH 7.4) to give a total volume of 11.88 mL. 120 μL of analyte stock solution (PBS buffer alone, hydrogen peroxide, glutathione, glutathione disulfide, sodium nitrite, L-cysteine, L-lysine, L-serine, sodium chloride, sodium bromide, L-homocysteine, sodium sulfide, sodium sulfate, sodium thiosulfate and sodium hypochlorite) was then added to give a final volume of 12 mL, and each reaction was left to stir at 37° C.
# [2] = Initial rates of fluorescence intensity of compound RAH2115 vs H2O2 concentration; detection limit; assay type: physicochemical; details: Detection Limit=3σ/κ, slope from FIG. 4 Graph B
# Procedure: The initial response rate of compound RAH2115 was also verified to be directly proportional to the concentration of H2O2. Specifically, immediately prior to use, 5 mM and 0.5 mM stock solutions of hydrogen peroxide were prepared in freshly degassed 1× PBS buffer (pH 7.4) using reagent grade H2O2 (30%). A 100 μM stock solution of compound RAH2115 was prepared in 200-proof ethanol. […] The plate was inserted into a 96-well plate reader (BioTek SYNERGY-HTX hybrid multi-mode reader, Winooski, Vt.) heated to 37° C., and agitated to ensure homogeneity. Fluorescence measurements were recorded and plotted as the change in initial rates of fluorescence intensity vs hydrogen peroxide concentration. This assay was repeated in triplicate and recorded as the mean+/−STDEV from three experiments.
# This finding was deemed to be of great significance as the rate of payload release from the scaffold could then be tuned by varying the amount of H2O2. In addition, this finding also allowed for reaction-based fluorescent probes based off of this design (i.e., compound RAH2115) to be used to accurately quantify the amount of H2O2 in buffered solutions. Indeed, as depicted in FIG. 4, Graph B, when the initial rates of increasing fluorescence intensity of compound RAH2115 were plotted versus hydrogen peroxide concentration, excellent linearity between 0-1 mM was observed (R^2=0.99). […]
# HeLa cells = assay: Imaging hydrogen peroxide in living HeLa cells with compound RAH2115 (confocal); assay type: cell-based, human; details: ex: 561 nm, em: 587 nm
# Procedure: HeLa (human cervical cancer) cells were grown and maintained appropriately according to the American Type Culture Collection (Manassas, Va.). Dulbecco's Modified Eagle Medium:F12-K (1:1) was supplemented with 10% fetal bovine serum (FBS), 1% penicillin-streptomycin, and 1% L-glutamine (ThermoFisher). Cells were incubated at 37° C. in a 5% CO2 atmosphere and split at 70-80% confluency every 2-3 days.
# At 70-80% confluency, HeLa cells were seeded on two 35 mm glass-bottom round plates (MatTek Corporation, Ashland, Mass.) at a density of 200 k cells/mL. After adhering overnight, FBS-free media was aspirated and cells were washed with phosphate buffered saline (1×, pH 7.4). Cells in one dish were then incubated with 10 mM Paraquat (Methyl Viologen) for 4 h. Afterwards, both dishes were washed and incubated with compound RAH2115 (10 μM) for 1 hour. After a final PBS wash, both plates were rehydrated in phenol red-free media for imaging. Both control (absence of paraquat) and experimental (presence of paraquat) plates were imaged: ex: 561 nm, em: 587 nm. […]
# An automated cell selection algorithm within the ImageJ software was used to quantify intracellular fluorescence. Cells from both control and experimental groups were subjected to Gaussian smoothing in order to accurately measure fluorescence within cells based on a minimum threshold against background. […]
smiles,measurement,setting,value
CC(C)(Cc1ccccc1B1OC(C)(C)C(C)(C)O1)C(=O)Oc1ccc2nc3ccc(=O)cc-3oc2c1 [compound RAH2115],increase in relative fluorescence intensity when co-incubated with H2O2,"[1]; 1 mM H2O2, 2 h, vs PBS buffer alone",~500 fold
same,"increase in fluorescence intensity in the presence of other oxidants, reductants, nucleophiles and salts (in words)","[1]; 2 h, PBS pH 7.4, 37° C.",negligible
same,"fluorescence (ex: 560 nm, em: 585 nm)","[1]; PBS pH 7.4, 37° C., 2 h, (1) PBS Buffer alone",1.7+/−0.32
same,"fluorescence (ex: 560 nm, em: 585 nm)","[1]; PBS pH 7.4, 37° C., 2 h, (2) 1 mM H2O2",812.25+/−89.32
same,"fluorescence (ex: 560 nm, em: 585 nm)","[1]; PBS pH 7.4, 37° C., 2 h, (3) 1 mM glutathione",43.65+/−4.24
same,"fluorescence (ex: 560 nm, em: 585 nm)","[1]; PBS pH 7.4, 37° C., 2 h, (4) 1 mM glutathione disulfide",29.87+/−0.96
same,"fluorescence (ex: 560 nm, em: 585 nm)","[1]; PBS pH 7.4, 37° C., 2 h, (5) 1 mM NaNO2",47.10+/−11.06
same,"fluorescence (ex: 560 nm, em: 585 nm)","[1]; PBS pH 7.4, 37° C., 2 h, (6) 1 mM L-cysteine",2.63+/−0.13
same,"fluorescence (ex: 560 nm, em: 585 nm)","[1]; PBS pH 7.4, 37° C., 2 h, (7) 1 mM L-lysine",3.31+/−0.61
same,"fluorescence (ex: 560 nm, em: 585 nm)","[1]; PBS pH 7.4, 37° C., 2 h, (8) 1 mM L-serine",1.70+/−0.13
same,"fluorescence (ex: 560 nm, em: 585 nm)","[1]; PBS pH 7.4, 37° C., 2 h, (9) 1 mM NaCl",40.71+/−1.33
same,"fluorescence (ex: 560 nm, em: 585 nm)","[1]; PBS pH 7.4, 37° C., 2 h, (10) 1 mM NaBr",39.56+/−0.02
same,"fluorescence (ex: 560 nm, em: 585 nm)","[1]; PBS pH 7.4, 37° C., 2 h, (11) 1 mM L-homocysteine",74.32+/−5.27
same,"fluorescence (ex: 560 nm, em: 585 nm)","[1]; PBS pH 7.4, 37° C., 2 h, (12) 100 mM Na2S",46.97+/−1.47
same,"fluorescence (ex: 560 nm, em: 585 nm)","[1]; PBS pH 7.4, 37° C., 2 h, (13) 1 mM sodium sulfate",38.01+/−2.86
same,"fluorescence (ex: 560 nm, em: 585 nm)","[1]; PBS pH 7.4, 37° C., 2 h, (14) 1 mM sodium thiosulfate",1.72+/−0.22
same,"fluorescence (ex: 560 nm, em: 585 nm)","[1]; PBS pH 7.4, 37° C., 2 h, (15) 1 mM sodium hypochlorite",16.75+/−1.09
same,detection limit for H2O2,[2],1.5 µM
same,fluorescence in live HeLa cells pre-treated with paraquat (in words),"HeLa cells; 10 mM paraquat 4 h, then RAH2115 10 μM 1 hour",strong red fluorescence within cells
same,"fluorescence in live HeLa cells, absence of paraquat (in words)","HeLa cells; RAH2115 10 μM, 1 hour, control without paraquat",no fluorescent cells were observed
